The values that follow come from US9981956B2, “Small molecule inhibitors of fibrosis” (THE CALIFORNIA INSTITUTE FOR BIOMEDICAL RESEARCH, priority 2013, dated 2018).

Structures are written as SMILES. Read-outs that look alike come from different tables or passages of the source.

The target in one data set is Cyp3A4 (Homo sapiens, UniProt P08684). Kind of data set: Cyp time-dependent inhibition (TDI) assay (human liver microsomes). The conditions noted are these: for IC50: human liver microsomes; for TDI ratio: (−) NADPH/(+) NADPH: IC50 shift, >1.5-fold considered positive for TDI. The arrangement: The TDI assay was generally performed in liver microsomes; from tissue; host or cells: human liver microsomes. In kind it is in vitro ADME. As to the method: The data from this assay was used in conjunction to the reversible inhibition assay. […] Then both incubation sets were diluted with fresh assay buffer containing NADPH Cyp specific substrates (midazolam for Cyp3A4) and inhibition of midazolam hydroxylation was measured by LC-MS/MS (Q1/Q2=m/z 342.2/203.2).
A general note: Liver microsomes are a subcellular fraction often used to study metabolism.

Data set [1] concerns fibroblast to myofibroblast transdifferentiation (primary human lung fibroblasts and primary rodent HSCs). Kind of data set: High content imaging and western based assay of fibroblast to myofibroblast transdifferentiation (α-SMA). In kind it is cell-based. The conditions noted are these: graded, TGF-β induced fibroblast to myofibroblast transdifferentiation.
The nature of data set [2]: Mouse pharmacokinetic (PK) studies, snapshot format. The conditions noted are these: plasma, po, 20 mg/kg; for AUC(0-t): read-out: AUC0-24 h. The class given is in vivo. As to the method:
Compounds with suitable in vitro ADME properties were progressed to in vivo PK studies. A snapshot format in mice was used to quickly assess the potential for lead candidates to be orally bioavailable. The snapshot format involved a single dose (typically 20 mg/kg) given orally in a standard vehicle (5% PEG/DMSO in water for example). Compounds were infused directly into MS analysis to determine unique MRM (multiple reaction monitoring) signal that is concentration dependent in either ESI positive or negative modes. HPLC analysis using various solvent gradients was performed from organic and aqueous solution to ensure good peak shape of desired Q1/Q2 masses. Formulations included 45% Cyclodextrin in water (as is used clinically for Itraconazole). Other formulations that may used are solutol, Eudragit, MC/Tween, etc. Standard curves were generated using plasma spiked with compound at various concentrations (10 ng/mL to 2000 ng/mL) to determine linear range of Q1/Q2 mass signal to compound concentration using female mouse heparinized plasma. Mice were dosed orally with compound, plasma samples collected by retro-orbital bleeds. Five time points were collected (30 min, 1 h, 4 h, 8 h, 24 h) into heparinized collection tubes. Protein precipitation was performed and compound extracted in cold acetonitrile and analyzed by MS. Nonwinlin was used for PK modeling as needed.

The subject of data set [3] is bleomycin-induced lung fibrosis. Kind of data set: Bleomycin-induced lung fibrosis model. The class given is in vivo, mouse. The conditions noted are these: 10 mg/kg SID versus AM-152 (30 mg/kg BID) and pirfenidone (400 mg/kg BID). From the text:
These in vivo assays took 6-8 weeks to complete (including full histological analysis). Typical experiments consisted of groups of 6-8 animals treated with itraconazole (2-4 doses), 1 or 2 itraconazole analogues (2-4 doses), vehicle, and benchmark treatments (pirfenidone and AM-152). AM-152 (Amira Pharmaceuticals) is an LPA1 (Lysophosphatidic acid 1) receptor antagonist. This target has been described as relevant to exacerbation of IPF systems in a mouse bleomycin model (British Journal of Pharmacology (2010), 160, 1699-1713). AM-152 is an advanced compound on this target as has been previously described in more detail in WO 2012/078805 and was used as a positive control and comparator to the compound disclosed in this application.
Nine-week old B6 male mice (Taconic farms) were surgically implanted with osmotic pumps delivering 25 mg/kg bleomycin for seven days. 17 days after surgery mice were treated with drug for 2 weeks. Drug treatments were administered as described in study design (FIG. 14). Previously described anti-fibrotic drugs AM-152 and pirfenidone were used as positive control drugs. […] Stained lung sections were analyzed according to a modified Ashcroft scoring system (FIG. 16) and using an unbiased automated image analysis method. […] Total stained area was then determined by using the area measurement function within ImageJ.

Setting [4] is: 20 min pre-incubation with NADPH, read-out: 3A4-Midazolam IC50 (+) NADPH.
Where [5] appears, read: 20 min pre-incubation without NADPH, read-out: 3A4-Midazolam IC50 (−) NADPH.
Where [6] appears, read: 20 mg/kg in 0.5% MC/0.5% TW80 suspension vehicle.
Setting [7] is: 20 mg/kg in 45% cyclodextrin with water.

Chain of Cyp3A4 (P08684 whole entry): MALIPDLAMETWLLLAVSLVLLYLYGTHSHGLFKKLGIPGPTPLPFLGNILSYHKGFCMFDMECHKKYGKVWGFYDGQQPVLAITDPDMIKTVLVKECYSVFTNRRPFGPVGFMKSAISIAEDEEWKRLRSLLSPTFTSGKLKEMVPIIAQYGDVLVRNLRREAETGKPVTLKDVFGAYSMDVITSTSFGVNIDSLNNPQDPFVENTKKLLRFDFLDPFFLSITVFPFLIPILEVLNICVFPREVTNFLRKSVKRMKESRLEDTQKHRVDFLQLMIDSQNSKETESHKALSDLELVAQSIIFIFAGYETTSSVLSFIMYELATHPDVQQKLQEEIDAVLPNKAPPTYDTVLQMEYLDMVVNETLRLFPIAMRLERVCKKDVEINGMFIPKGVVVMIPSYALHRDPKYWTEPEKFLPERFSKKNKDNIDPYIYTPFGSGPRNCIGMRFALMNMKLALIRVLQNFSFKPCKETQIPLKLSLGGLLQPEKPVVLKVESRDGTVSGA

In the case of `CCC(C)n1ncn(-c2ccc(N3CCN(c4ccc(OC[C@@H]5CO[C@@](Cn6nccn6)(c6ccc(Cl)cc6Cl)O5)cc4)CC3)cc2)c1=O` (stereo partly shown) [Compound 15], the figures for the IC50 on Cyp3A4 (setting [4]) and on Cyp3A4 (setting [5]) were 41 µM and > 50 µM, respectively. For the same compound, on Cyp3A4, the “TDI ratio: (−) NADPH/(+) NADPH” value is ~1.2 (no TDI). In data set [1], this compound yielded a half-maximal effective concentration (EC50) of 0.5 to 5 µM.
Take `CCC(C)n1ncn(-c2ccc(N3CCN(c4ccc(OC[C@@H]5CO[C@@](Cc6ccnnc6)(c6ccc(Cl)cc6Cl)O5)cc4)CC3)cc2)c1=O` (stereo partly shown) [Compound 22]: the IC50 on Cyp3A4 (setting [4]) and on Cyp3A4 (setting [5]) was > 50 µM each time. In addition, the “TDI ratio: (−) NADPH/(+) NADPH” value on Cyp3A4 is reported as ~1 (no TDI). In data set [1], the half-maximal effective concentration (EC50) is < 0.5 µM. Moreover, the Cmax was 170 nM in data set [2] (setting [6]) and 1710 nM in data set [2] (setting [7]). The AUC(0-t) in data set [2] (setting [6]) stood at 2.21 µM·h; in data set [2] (setting [7]), 8.08 µM·h.
As for `CCC(C)n1ncn(-c2ccc(N3CCN(c4ccc(OC[C@@H]5CO[C@@](Cn6nccn6)(c6ccccc6)O5)cc4)CC3)cc2)c1=O` (stereo partly shown) [Compound 42], on Cyp3A4 (setting [4]), the IC50 is > 50 µM. Further, the IC50 at Cyp3A4 (setting [5]) is > 50 µM. Moreover, the “TDI ratio: (−) NADPH/(+) NADPH” value on Cyp3A4 is listed as ~1 (no TDI). The “Lung fibrosis disease severity compared to control compounds” value in data set [3] was “decreased lung fibrosis disease severity with efficacy that was as good or better”. The EC50 in data set [1] is < 0.5 µM. For the same compound, in data set [2] (setting [7]), the Cmax was 3160 nM and the AUC(0-t) was determined as 42.7 µM·h.

As usually defined, the IC50 is the point on the concentration scale where inhibition reaches its midpoint. As usually defined, the EC50 is the midpoint of the concentration-response curve. Read a high EC50 as a less potent agent. Broadly, the Cmax is the maximum level reached in the sampled fluid or tissue.
